In patent US11291669B2, “Compositions comprising phosphoinositide 3-kinase inhibitors and a second antiproliferative agent” (Karus Therapeutics Limited, priority 2015, dated 2022):
Where two headings read alike, the source gives them in different places.

Tests used:
[1] = Rodent pharmacokinetics, male CD1 mouse, plasma PK; format: in vivo; settings: PO 10 mg/kg vs IV 5 mg/kg, read-out: F (oral bioavailability)
Method: Formulation: 10% DMSO, 90% Saline Dosing: 10 mg/kg P.O. and 5 mg/kg I.V. Plasma PK Summary: […]

[2] = Rodent pharmacokinetics, male Balb/c mouse, plasma PK; format: in vivo; settings: for Oral Bioavailability (F): summary table, PO 10 mg/kg
Method: Animals in Group 1 were administered intravenously with Example B solution formulation in 20% Propylene Glycol, 50% of PEG 400 and 30% of (20% HPβCD in water) via tail vein at a dose of 3 mg/kg.
Animals in Group 2 were administered with oral solution formulation of Example B in 20% Propylene Glycol, 50% of PEG 400 and 30% of (20% HPβCD in water) at a dose of 10 mg/kg;
Dosing: 10 mg/kg P.O. and 3 mg/kg I.V.
Animals in Group 1 were administered intravenously with Example G solution formulation in 5% NMP, 5% solutol HS-15 in 90% HPIβCD solution (20% HPβCD in RO water) at 3 mg/kg dose.
Animals in Group 2 were administered orally with 10 mg/kg solution formulation of Example G in 5% NMP, 5% solutol HS-15 in 90% HPβCD solution (20% HPβCD in RO water)

c1cc(-c2nc(N3CCOCC3)c3oc4ncc(CN5C[C@@H]6C[C@H]5CO6)cc4c3n2)c2cc[nH]c2c1 [Example A, 4-(1H-Indol-4-yl)-6-(morpholin-4-yl)-12-[(1S,4S)-2-oxa-5-azabicyclo[2.2.1]heptan-5-ylmethyl]-8-oxa-3,5,10-triazatricyclo[7.4.0.0^2,7]trideca-1(13),2(7),3,5,9,11-hexaene]
bioavailability ([1]; mesylate salt): 73.8%

c1cc(-c2nc(N3CCOCC3)c3oc4ncc(CN5CCC6(CC5)COC6)cc4c3n2)c2cc[nH]c2c1 [Example B, 4-(1H-Indol-4-yl)-6-(morpholin-4-yl)-12-{2-oxa-7-azaspiro[3.5]nonan-7-ylmethyl}-8-oxa-3,5,10-triazatricyclo[7.4.0.0^2,7]trideca-1(13),2(7),3,5,9,11-hexaene]
Clearance ([2]; IV, 3 mg/kg, mesylate salt): 33.06 mL/min/kg | Oral Bioavailability (F) [2]: 74

c1cc(-c2nc(N3CCOCC3)c3oc4ncc(CN5CCC56COC6)cc4c3n2)c2cc[nH]c2c1 [Example G, 4-(1H-indol-4-yl)-6-(morpholin-4-yl)-12-{6-oxa-1-azaspiro[3.3]heptan-1-ylmethyl}-8-oxa-3,5,10-triazatricyclo[7.4.0.0^2,7]trideca-1(13), 2(7), 3,5,9,11-hexaene]
Oral Bioavailability (F) [2]: 30

c1cc(-c2nc(N3CCOCC3)c3oc4ncc(CN5CCCCC5)cc4c3n2)c2cc[nH]c2c1 [Example I in WO2011/021038, reference compound]
bioavailability ([1]; HCl salt): 29.6%
